In US11807644B2 (PMV Pharmaceuticals, Inc., priority 2020, dated 2023):

What follows are molecules tested against T1, recombinant His-tag Y220C p53 DBD protein (Homo sapiens, UniProt P04637, Y220C) (assay: In vitro DNA binding activity assay (TR-FRET): binding of His-tag Y220C p53 DBD to biotin-labeled consensus DNA). Settings: SC150 = concentration to increase DNA binding by […], His-tag Y220C p53 DBD, biotin-labeled consensus DNA.
T1 construct: recombinant His-tag Y220C p53 DBD protein (amino acids #˜94-312)
Type: biochemical

| Y220C SC150 (μM) | Compound |
| --- | --- |
| * (* = 0 μM ≤ SC150 < 0.1 μM) | CN1CC[C@@H](Nc2cccc3c2cc(-c2noc(CNC(=O)c4ccn(CCO)c4)n2)n3CC(F)(F)F)[C@@H](F)C1 [Compound 249B, N-{[3-(4-{[(3S,4R)-3-fluoro-1-methylpiperidin-4-yl]amino}-1-(2,2,2-trifluoroethyl)-1H-indol-2-yl)-1,2,4-oxadiazol-5-yl]methyl}-1-(2-hydroxyethyl)-1H-pyrrole-3-carboxamide] |
| * (* = 0 μM ≤ SC150 < 0.1 μM) | CN1CC[C@@H](Nc2cccc3c2cc(-c2noc(CNC(=O)c4ccn(CC(F)F)c4)n2)n3CC(F)(F)F)[C@@H](F)C1 [Compound 250B, 1-(2,2-difluoroethyl)-N-{[3-(4-{[(3S,4R)-3-fluoro-1-methylpiperidin-4-yl]amino}-1-(2,2,2-trifluoroethyl)-1H-indol-2-yl)-1,2,4-oxadiazol-5-yl]methyl}-1H-pyrrole-3-carboxamide] |
| * (* = 0 μM ≤ SC150 < 0.1 μM) | COC(C)(C)Cn1ccc(C(=O)NCc2nc(-c3cc4c(N[C@@H]5CCN(C)C[C@@H]5F)cccc4n3CC(F)(F)F)no2)c1 [Compound 251B, N-{[3-(4-{[(3S,4R)-3-fluoro-1-methylpiperidin-4-yl]amino}-1-(2,2,2-trifluoroethyl)-1H-indol-2-yl)-1,2,4-oxadiazol-5-yl]methyl}-1-(2-methoxy-2-methylpropyl)-1H-pyrrole-3-carboxamide] |
| * (* = 0 μM ≤ SC150 < 0.1 μM) | CN1CC[C@@H](Nc2cccc3c2cc(-c2noc(CNC(=O)c4ccn(CC(C)(C)O)c4)n2)n3CC(F)(F)F)[C@@H](F)C1 [Compound 252B, N-{[3-(4-{[(3S,4R)-3-fluoro-1-methylpiperidin-4-yl]amino}-1-(2,2,2-trifluoroethyl)-1H-indol-2-yl)-1,2,4-oxadiazol-5-yl]methyl}-1-(2-hydroxy-2-methylpropyl)-1H-pyrrole-3-carboxamide] |
| * (* = 0 μM ≤ SC150 < 0.1 μM) | COC(C)Cn1ccc(C(=O)NCc2nc(-c3cc4c(N[C@@H]5CCN(C)C[C@@H]5F)cccc4n3CC(F)(F)F)no2)c1 (stereo partly drawn) [Compound 253B, N-{[3-(4-{[(3S,4R)-3-fluoro-1-methylpiperidin-4-yl]amino}-1-(2,2,2-trifluoroethyl)-1H-indol-2-yl)-1,2,4-oxadiazol-5-yl]methyl}-1-(2-methoxypropyl)-1H-pyrrole-3-carboxamide] |
| * (* = 0 μM ≤ SC150 < 0.1 μM) | CN1CC[C@@H](Nc2cccc3c2cc(-c2noc(CNC(=O)c4ccc5ccn(C)c5c4)n2)n3CC(F)(F)F)[C@@H](F)C1 [Compound 254B, N-{[3-(4-{[(3S,4R)-3-fluoro-1-methylpiperidin-4-yl]amino}-1-(2,2,2-trifluoroethyl)-1H-indol-2-yl)-1,2,4-oxadiazol-5-yl]methyl}-1-methyl-1H-indole-6-carboxamide] |
| * (* = 0 μM ≤ SC150 < 0.1 μM) | CC(C)n1cc(C(=O)NCc2nc(-c3cc4c(N[C@@H]5CCN(C)C[C@@H]5F)cccc4n3CC(F)(F)F)no2)cn1 [Compound 255B, N-{[3-(4-{[(3S,4R)-3-fluoro-1-methylpiperidin-4-yl]amino}-1-(2,2,2-trifluoroethyl)-1H-indol-2-yl)-1,2,4-oxadiazol-5-yl]methyl}-1-(propan-2-yl)-1H-pyrazole-4-carboxamide] |
| * (* = 0 μM ≤ SC150 < 0.1 μM) | CN1CC[C@@H](Nc2cccc3c2cc(-c2noc(CNC(=O)c4ccc(N5CCC(F)(F)CC5)cc4)n2)n3CC(F)(F)F)[C@@H](F)C1 [Compound 256B, 4-(4,4-difluoropiperidin-1-yl)-N-{[3-(4-{[(3S,4R)-3-fluoro-1-methylpiperidin-4-yl]amino}-1-(2,2,2-trifluoroethyl)-1H-indol-2-yl)-1,2,4-oxadiazol-5-yl]methyl}benzamide] |
| * (* = 0 μM ≤ SC150 < 0.1 μM) | CC(C)n1cncc1C(=O)NCc1nc(-c2cc3c(N[C@@H]4CCN(C)C[C@@H]4F)cccc3n2CC(F)(F)F)no1 [Compound 257B, N-{[3-(4-{[(3S,4R)-3-fluoro-1-methylpiperidin-4-yl]amino}-1-(2,2,2-trifluoroethyl)-1H-indol-2-yl)-1,2,4-oxadiazol-5-yl]methyl}-1-(propan-2-yl)-1H-imidazole-5-carboxamide] |
| * (* = 0 μM ≤ SC150 < 0.1 μM) | CN1CC[C@@H](Nc2cccc3c2cc(-c2noc(CNC(=O)c4ccc5[nH]ccc5c4)n2)n3CC(F)(F)F)[C@@H](F)C1 [Compound 258B, N-{[3-(4-{[(3S,4R)-3-fluoro-1-methylpiperidin-4-yl]amino}-1-(2,2,2-trifluoroethyl)-1H-indol-2-yl)-1,2,4-oxadiazol-5-yl]methyl}-1H-indole-5-carboxamide] |
| * (* = 0 μM ≤ SC150 < 0.1 μM) | CN1CC[C@@H](Nc2cccc3c2cc(-c2noc(CNC(=O)c4ccc5c(ccn5C)c4)n2)n3CC(F)(F)F)[C@@H](F)C1 [Compound 259B, N-{[3-(4-{[(3S,4R)-3-fluoro-1-methylpiperidin-4-yl]amino}-1-(2,2,2-trifluoroethyl)-1H-indol-2-yl)-1,2,4-oxadiazol-5-yl]methyl}-1-methyl-1H-indole-5-carboxamide] |
| * (* = 0 μM ≤ SC150 < 0.1 μM) | CN1CC[C@@H](Nc2cccc3c2cc(-c2noc(CNC(=O)c4ccc(N5CCOCC5)cc4)n2)n3CC(F)(F)F)[C@@H](F)C1 [Compound 260B, N-{[3-(4-{[(3S,4R)-3-fluoro-1-methylpiperidin-4-yl]amino}-1-(2,2,2-trifluoroethyl)-1H-indol-2-yl)-1,2,4-oxadiazol-5-yl]methyl}-4-(morpholin-4-yl)benzamide] |
| * (* = 0 μM ≤ SC150 < 0.1 μM) | CN1CC[C@@H](Nc2cccc3c2cc(-c2noc(CNC(=O)c4cccc(N5CCOCC5)c4)n2)n3CC(F)(F)F)[C@@H](F)C1 [Compound 262B, N-{[3-(4-{[(3S,4R)-3-fluoro-1-methylpiperidin-4-yl]amino}-1-(2,2,2-trifluoroethyl)-1H-indol-2-yl)-1,2,4-oxadiazol-5-yl]methyl}-3-(morpholin-4-yl)benzamide] |
| * (* = 0 μM ≤ SC150 < 0.1 μM) | CN1CC[C@@H](Nc2cccc3c2cc(-c2noc(CNC(=O)c4cccc(N5CCCC5)c4)n2)n3CC(F)(F)F)[C@@H](F)C1 [Compound 263B, N-{[3-(4-{[(3S,4R)-3-fluoro-1-methylpiperidin-4-yl]amino}-1-(2,2,2-trifluoroethyl)-1H-indol-2-yl)-1,2,4-oxadiazol-5-yl]methyl}-3-(pyrrolidin-1-yl)benzamide] |
| * (* = 0 μM ≤ SC150 < 0.1 μM) | CN(C)C[C@@H]1C[C@H]1C(=O)NCc1nc(-c2cc3c(N[C@@H]4CCN(C)C[C@@H]4F)cccc3n2CC(F)(F)F)no1 [Compound 264B, (1R,2R)-2-[(dimethylamino)methyl]-N-{[3-(4-{[(3S,4R)-3-fluoro-1-methylpiperidin-4-yl]amino}-1-(2,2,2-trifluoroethyl)-1H-indol-2-yl)-1,2,4-oxadiazol-5-yl]methyl}cyclopropane-1-carboxamide] |
| * (* = 0 μM ≤ SC150 < 0.1 μM) | CN1CC[C@@H](Nc2cccc3c2cc(-c2noc(CNC(=O)[C@@H]4C[C@H]4CN4CCCC4)n2)n3CC(F)(F)F)[C@@H](F)C1 [Compound 265B, (1R,2R)-N-{[3-(4-{[(3S,4R)-3-fluoro-1-methylpiperidin-4-yl]amino}-1-(2,2,2-trifluoroethyl)-1H-indol-2-yl)-1,2,4-oxadiazol-5-yl]methyl}-2-[(pyrrolidin-1-yl)methyl]cyclopropane-1-carboxamide] |
